{"source": "patent US12227653B2", "about": "“Fluorinated coumarins” (3M INNOVATIVE PROPERTIES COMPANY, priority 2019, dated 2025)", "assay_type_in_all_cases": "physicochemical", "key": {"[1]": {"assay": "Solubility Test Method in fluorinated fluids", "settings": "for solubility: organic solvent or mixture, thermodynamic from solid", "protocol": "For compounds 4 and 5, a known amount of material was weighed into a scintillation vial and 1 mL of each solvent was volumetrically added followed by sonication for dissolution. For samples that completely dissolved, the formed solution was then added to additional aliquots of sample in an attempt to generate a saturated solution. […] In the case of compound 8, approximately 100 mg was suspended in 10 mL of each solvent and shaken for 1-2 h, after which the solution was filtered via syringe filter into a tared vial and the solution mass measured. The solvent was evaporated in vacuo and the mass of the remaining residue was recorded.\nThese samples were repeated using less mass of Molecule 5. […] It is believed that some molecules may have a tendency to gel at high concentrations (e.g., the molecule comprises more than 50 wt % of the composition)."}, "UV/Vis Test Method": {"assay": "UV/Vis Test Method", "settings": "diluted into HFE 7200, 1 cm quartz cuvette", "protocol": "Unless otherwise mentioned, the sample was diluted into HFE 7200 and spectra were collected on an Ultraviolet-Visible (UV/Vis) spectrometer (available under the trade designation “CARY 8454” from Agilent Technologies, Inc, Santa Clara, CA) using 1 cm quartz cuvettes."}, "Fluorescence Test Method": {"assay": "Fluorescence Test Method", "settings": "in CHCl3 instead of HFE 7200", "protocol": "Unless otherwise mentioned, the sample was diluted into HFE 7200 and spectra were collected on a fluorimeter (available under the trade designation “FLUOROLOG 3-21 HR” from Jobin-Yvon Horiba, Inc., Edison, NJ) in a 1 cm fluorescence cuvette under the following experimental parameters: • Orientation: 10 degree (front face) • EX Slit Width: 1.0 nm • EM Slit Width: 1.0 nm • EX Data Interval: 5 nm • EM Data Interval: 5 nm • EX Wavelength range: 300 nm to 500 nm • EM Wavelength range: 400 nm to 650 nm"}}, "data": [{"compound": "Cc1cc(=O)oc2cc(OCCCCCN(C)S(=O)(=O)C(F)(F)C(F)(F)C(F)(F)C(F)(F)F)ccc12", "note": "[Molecule 8]", "values": [{"measurement": "solubility", "setting": "[1]; solvent HFE 7200", "result": 1570, "unit": "µg/mL"}, {"measurement": "solubility", "setting": "[1]; solvent PF-5052", "result": 4070, "unit": "µg/mL"}, {"measurement": "Solubility (g/mL)", "setting": "[1]; solvent FC-70", "result": "Insoluble"}, {"measurement": "wt % of solution", "setting": "[1]; solvent FC-70", "result": 0, "unit": "wt %"}, {"measurement": "wt % of solution", "setting": "[1]; solvent HFE 7200", "result": 0.1, "unit": "wt %"}, {"measurement": "wt % of solution", "setting": "[1]; solvent PF-5052", "result": 0.2, "unit": "wt %"}, {"measurement": "λmax from the UV/Vis test", "setting": "UV/Vis Test Method", "result": 320, "unit": "nm"}, {"measurement": "fluorescence emission λmax", "setting": "Fluorescence Test Method", "result": 380, "unit": "nm"}, {"measurement": "fluorescence excitation λ", "setting": "Fluorescence Test Method", "result": 320, "unit": "nm"}]}]}
